Test results reported in PubChem BioAssay AID1963442 (Molecular Pharmacology Branch, DTP, NCI, 2024).

System: MPNST complex spheroid with HUVEC/MSC, growth, % test/control
Test: Anticancer human tumor MPNST cell line growth inhibition [Asc];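 also: compounds left on spheroids for seven days before reading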
Settings: for IC50: curve of first compound; for viability, T/C: stronger effect = lower value
Method in brief: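 Tumor cells were grown as multicellular spheroids with stromal HUVEC and mesenchymal stem cells and treated singly or in combination. Concentrations fell in half-log steps from the clinical Cmax, or from 10 microM where none was known.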

[1] = second compound 0.1 µM, first compound 0.0316 µM
[2] = second compound 0.1 µM, first compound 0.1 µM
[3] = second compound 0.1 µM, first compound 0.316 µM
[4] = second compound 0.1 µM, first compound 1 µM
[5] = second compound 0.316 µM, first compound 0.0316 µM
[6] = second compound 0.316 µM, first compound 0.1 µM
[7] = second compound 0.316 µM, first compound 0.316 µM
[8] = second compound 0.316 µM, first compound 1 µM
[9] = second compound 1 µM, first compound 0.0316 µM
[10] = second compound 1 µM, first compound 0.1 µM
[11] = second compound 1 µM, first compound 0.316 µM
[12] = second compound 1 µM, first compound 1 µM

CNC(C)C(=O)NC1CN(S(=O)(=O)c2cccc(S(=O)(=O)N3CCC4CCC(C(=O)NC(c5ccccc5)c5ccccc5)N4C(=O)C(NC(=O)C(C)NC)C3)c2)CCC2CCC(C(=O)NC(c3ccccc3)c3ccccc3)N2C1=O (configuration not stated) + Cc1c(S(C)(=O)=O)c(-c2cc(F)cc(N3CCN(c4ccc(NS(=O)(=O)c5ccc(NC(CCN6CCC(C(=O)OCCCP(=O)(O)O)CC6)CSc6ccccc6)c(S(=O)(=O)C(F)(F)F)c5)cc4)CC3)c2)c(-c2ccc(Cl)cc2)n1C(C)C
IC50 (second compound 0.1 µM): > 1000 nM
IC50 (second compound 0.316 µM): > 1000 nM
IC50 (second compound 1 µM): > 1000 nM
IC50 (second compound 3.16 µM): > 1000 nM
IC50 (second compound 10 µM): > 1000 nM
viability, T/C (second compound 0.1 µM, first compound 0.00316 µM): 121%
viability, T/C (second compound 0.1 µM, first compound 0.01 µM): 143%
viability, T/C [1]: 162%
viability, T/C [2]: 165%
viability, T/C [3]: 126%
viability, T/C [4]: 108%
viability, T/C (second compound 0.316 µM, first compound 0.00316 µM): 139%
viability, T/C (second compound 0.316 µM, first compound 0.01 µM): 150%
viability, T/C [5]: 127%
viability, T/C [6]: 149%
viability, T/C [7]: 121%
viability, T/C [8]: 135%
viability, T/C (second compound 1 µM, first compound 0.00316 µM): 145%
viability, T/C (second compound 1 µM, first compound 0.01 µM): 150%
viability, T/C [9]: 152%
viability, T/C [10]: 147%
viability, T/C [11]: 194%
viability, T/C [12]: 160%
viability, T/C (second compound 3.16 µM, first compound 0.00316 µM): 132%
viability, T/C (second compound 3.16 µM, first compound 0.01 µM): 185%
viability, T/C (second compound 3.16 µM, first compound 0.0316 µM): 171%
viability, T/C (second compound 3.16 µM, first compound 0.1 µM): 141%
viability, T/C (second compound 3.16 µM, first compound 0.316 µM): 151%
viability, T/C (second compound 3.16 µM, first compound 1 µM): 159%
viability, T/C (second compound 10 µM, first compound 0.00316 µM): 143%
viability, T/C (second compound 10 µM, first compound 0.01 µM): 200%
viability, T/C (second compound 10 µM, first compound 0.0316 µM): 216%
viability, T/C (second compound 10 µM, first compound 0.1 µM): 159%
viability, T/C (second compound 10 µM, first compound 0.316 µM): 185%
viability, T/C (second compound 10 µM, first compound 1 µM): 179%

O=C(c1cc(Cc2n[nH]c(=O)c3ccccc23)ccc1F)N1CCN(C(=O)C2CC2)CC1 + CNC(C)C(=O)NC1CN(S(=O)(=O)c2cccc(S(=O)(=O)N3CCC4CCC(C(=O)NC(c5ccccc5)c5ccccc5)N4C(=O)C(NC(=O)C(C)NC)C3)c2)CCC2CCC(C(=O)NC(c3ccccc3)c3ccccc3)N2C1=O
IC50 (second compound 0.00316 µM): < 31.6 nM
IC50 (second compound 0.01 µM): < 31.6 nM
IC50 (second compound 0.0316 µM): 2010 nM
IC50 (second compound 0.1 µM): 2460 nM
IC50 (second compound 0.316 µM): 2510 nM
IC50 (second compound 1 µM): 3390 nM
viability, T/C (second compound 0.00316 µM, first compound 0.0316 µM): 12.7%
viability, T/C (second compound 0.00316 µM, first compound 0.1 µM): 10.7%
viability, T/C (second compound 0.00316 µM, first compound 0.316 µM): 13.4%
viability, T/C (second compound 0.00316 µM, first compound 1 µM): 12.9%
viability, T/C (second compound 0.00316 µM, first compound 3.16 µM): 12.1%
viability, T/C (second compound 0.00316 µM, first compound 10 µM): 13.7%
viability, T/C (second compound 0.01 µM, first compound 0.0316 µM): 41%
viability, T/C (second compound 0.01 µM, first compound 0.1 µM): 36.8%
viability, T/C (second compound 0.01 µM, first compound 0.316 µM): 50.4%
viability, T/C (second compound 0.01 µM, first compound 1 µM): 44.6%
viability, T/C (second compound 0.01 µM, first compound 3.16 µM): 26.4%
viability, T/C (second compound 0.01 µM, first compound 10 µM): 27.4%
viability, T/C (second compound 0.0316 µM, first compound 0.0316 µM): 76.2%
viability, T/C (second compound 0.0316 µM, first compound 0.1 µM): 65.6%
viability, T/C (second compound 0.0316 µM, first compound 0.316 µM): 59.9%
viability, T/C (second compound 0.0316 µM, first compound 1 µM): 64.3%
viability, T/C (second compound 0.0316 µM, first compound 3.16 µM): 40.4%
viability, T/C (second compound 0.0316 µM, first compound 10 µM): 37.7%
viability, T/C [1]: 76.5%
viability, T/C [2]: 85%
viability, T/C [3]: 82.4%
viability, T/C [4]: 79.8%
viability, T/C (second compound 0.1 µM, first compound 3.16 µM): 41.8%
viability, T/C (second compound 0.1 µM, first compound 10 µM): 38.8%
viability, T/C [5]: 100%
viability, T/C [6]: 66%
viability, T/C [7]: 84.7%
viability, T/C [8]: 81.3%
viability, T/C (second compound 0.316 µM, first compound 3.16 µM): 41.8%
viability, T/C (second compound 0.316 µM, first compound 10 µM): 42.4%
viability, T/C [9]: 75.8%
viability, T/C [10]: 63.4%
viability, T/C [11]: 60%
viability, T/C [12]: 68.2%
viability, T/C (second compound 1 µM, first compound 3.16 µM): 45.3%
viability, T/C (second compound 1 µM, first compound 10 µM): 42%

C#Cc1c(F)ccc2cc(O)cc(-c3ncc4c(N5CC6CCC(C5)N6)nc(OCC56CCCN5CC(F)C6)nc4c3F)c12 (configuration not stated) + CCN1C(C(=O)NC23CCC(C(=O)O)(CC2)CC3)C(c2cccc(Cl)c2F)C2(C(=O)Nc3cc(Cl)ccc32)C12CCCCC2
IC50 (second compound 0.03 µM): > 10000 nM
IC50 (second compound 0.0949 µM): > 10000 nM
IC50 (second compound 0.3 µM): > 10000 nM
IC50 (second compound 0.949 µM): > 10000 nM
IC50 (second compound 3 µM): > 10000 nM
viability, T/C (second compound 0.03 µM, first compound 0.0316 µM): 71.3%
viability, T/C (second compound 0.03 µM, first compound 0.1 µM): 72.9%
viability, T/C (second compound 0.03 µM, first compound 0.316 µM): 79.2%
viability, T/C (second compound 0.03 µM, first compound 1 µM): 75.8%
viability, T/C (second compound 0.03 µM, first compound 3.16 µM): 78.4%
viability, T/C (second compound 0.03 µM, first compound 10 µM): 68.4%
viability, T/C (second compound 0.0949 µM, first compound 0.0316 µM): 70.3%
viability, T/C (second compound 0.0949 µM, first compound 0.1 µM): 83.3%
viability, T/C (second compound 0.0949 µM, first compound 0.316 µM): 75.7%
viability, T/C (second compound 0.0949 µM, first compound 1 µM): 76.7%
viability, T/C (second compound 0.0949 µM, first compound 3.16 µM): 71.2%
viability, T/C (second compound 0.0949 µM, first compound 10 µM): 77%
viability, T/C (second compound 0.3 µM, first compound 0.0316 µM): 84.6%
viability, T/C (second compound 0.3 µM, first compound 0.1 µM): 73.6%
viability, T/C (second compound 0.3 µM, first compound 0.316 µM): 89.1%
viability, T/C (second compound 0.3 µM, first compound 1 µM): 72.6%
viability, T/C (second compound 0.3 µM, first compound 3.16 µM): 60.8%
viability, T/C (second compound 0.3 µM, first compound 10 µM): 51%
viability, T/C (second compound 0.949 µM, first compound 0.0316 µM): 66.8%
viability, T/C (second compound 0.949 µM, first compound 0.1 µM): 72%
viability, T/C (second compound 0.949 µM, first compound 0.316 µM): 73%
viability, T/C (second compound 0.949 µM, first compound 1 µM): 60.9%
viability, T/C (second compound 0.949 µM, first compound 3.16 µM): 61.1%
viability, T/C (second compound 0.949 µM, first compound 10 µM): 52.5%
viability, T/C (second compound 3 µM, first compound 0.0316 µM): 66.5%
viability, T/C (second compound 3 µM, first compound 0.1 µM): 62.2%
viability, T/C (second compound 3 µM, first compound 0.316 µM): 57.8%
viability, T/C (second compound 3 µM, first compound 1 µM): 59.8%
viability, T/C (second compound 3 µM, first compound 3.16 µM): 60.1%
viability, T/C (second compound 3 µM, first compound 10 µM): 68.8%
